Experimental findings from US11993599B2, “Therapeutic compounds” (Genentech, Inc., priority 2021, dated 2024) are described below.

SMILES strings stand for the structures. Bounds are passed on as bounds.

One assay concerns the target T1, BRG1 (Homo sapiens, UniProt P51532).
T1 construct: either BRM primary antibody (Cell signaling Cat #11966) or BRG primary antibody (Abcam, ab 110641); endogenous in cells; host or cells: SW1573
The assay can be described thus: Immunofluorescence assay for BRG1 degradation in SW1573 cells. The following applies: 20 hours incubation; for DC50: immunofluorescence mean nuclear signal, read-out: BRG1 IF Degradation IC50; for Dmax: SW1573, 20 h, normalized to a known degrader control, read-out: BRG1 IF Degradation Sinf (%). The format is cell-based. An outline of the steps:
(§1)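 Imaging-based readout in SW1573: 20 h dosing, formaldehyde fixation, antibody staining for either remodeler, nuclear intensity per cell quantified. Values normalized to control degrader; floating-maximum fit.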

The next assay deals with BRM (Homo sapiens, UniProt P51531). Nature of the assay: Immunofluorescence assay for BRM degradation in SW1573 cells. The format is cell-based. Set-up: treated overnight at 4° C. with either BRM primary antibody (Cell signaling Cat #11966) or BRG primary antibody; endogenous in cells; host or cells: SW1573. The note with it: 20 hours incubation; for DC50: immunofluorescence mean nuclear signal, read-out: BRM IF Degradation IC50; for BRM IF Degradation Sinf (%): normalized to a known degrader control. The method in brief: as §1
BRM, sequence (P51531 whole entry): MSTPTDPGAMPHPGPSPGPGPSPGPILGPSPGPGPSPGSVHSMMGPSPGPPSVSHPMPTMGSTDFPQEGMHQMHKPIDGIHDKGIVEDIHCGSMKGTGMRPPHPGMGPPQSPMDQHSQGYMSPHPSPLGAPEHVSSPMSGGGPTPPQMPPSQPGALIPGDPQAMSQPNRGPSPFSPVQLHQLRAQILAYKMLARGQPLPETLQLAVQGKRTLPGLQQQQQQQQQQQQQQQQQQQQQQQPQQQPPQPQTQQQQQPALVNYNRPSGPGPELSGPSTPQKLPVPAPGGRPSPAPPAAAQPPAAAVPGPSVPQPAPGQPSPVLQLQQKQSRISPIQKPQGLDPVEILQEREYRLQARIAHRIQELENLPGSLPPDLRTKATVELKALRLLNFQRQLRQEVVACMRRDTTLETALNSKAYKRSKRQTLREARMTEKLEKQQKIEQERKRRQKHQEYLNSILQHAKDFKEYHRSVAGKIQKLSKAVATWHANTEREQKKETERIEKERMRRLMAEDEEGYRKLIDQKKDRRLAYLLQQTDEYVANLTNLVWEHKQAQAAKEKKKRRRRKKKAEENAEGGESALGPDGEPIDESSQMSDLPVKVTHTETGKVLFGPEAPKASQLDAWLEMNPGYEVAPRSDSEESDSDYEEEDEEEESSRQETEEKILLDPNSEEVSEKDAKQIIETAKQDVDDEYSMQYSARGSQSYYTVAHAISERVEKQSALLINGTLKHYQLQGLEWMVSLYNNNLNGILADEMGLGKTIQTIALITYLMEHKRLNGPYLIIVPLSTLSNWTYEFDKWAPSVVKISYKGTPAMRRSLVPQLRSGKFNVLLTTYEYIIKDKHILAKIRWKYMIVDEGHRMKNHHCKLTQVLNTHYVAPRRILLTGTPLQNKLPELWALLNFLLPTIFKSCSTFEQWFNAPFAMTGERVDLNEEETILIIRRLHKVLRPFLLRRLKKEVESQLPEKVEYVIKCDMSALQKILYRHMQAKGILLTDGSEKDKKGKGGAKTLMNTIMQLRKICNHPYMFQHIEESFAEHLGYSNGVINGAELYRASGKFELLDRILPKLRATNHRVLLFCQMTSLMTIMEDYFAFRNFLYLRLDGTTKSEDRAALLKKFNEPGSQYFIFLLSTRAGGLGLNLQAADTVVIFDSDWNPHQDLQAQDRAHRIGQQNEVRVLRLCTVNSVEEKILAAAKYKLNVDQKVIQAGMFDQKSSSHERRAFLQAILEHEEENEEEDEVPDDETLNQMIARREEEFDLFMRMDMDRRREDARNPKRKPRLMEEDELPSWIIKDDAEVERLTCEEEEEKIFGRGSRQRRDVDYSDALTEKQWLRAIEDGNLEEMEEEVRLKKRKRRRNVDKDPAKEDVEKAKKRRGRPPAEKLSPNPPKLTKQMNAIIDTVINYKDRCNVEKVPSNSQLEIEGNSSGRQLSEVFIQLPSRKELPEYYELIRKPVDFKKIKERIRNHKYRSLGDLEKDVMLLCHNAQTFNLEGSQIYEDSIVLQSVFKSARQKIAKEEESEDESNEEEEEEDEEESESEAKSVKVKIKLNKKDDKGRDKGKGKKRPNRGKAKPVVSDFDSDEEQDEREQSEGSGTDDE

T1 sequence (P51532 whole entry): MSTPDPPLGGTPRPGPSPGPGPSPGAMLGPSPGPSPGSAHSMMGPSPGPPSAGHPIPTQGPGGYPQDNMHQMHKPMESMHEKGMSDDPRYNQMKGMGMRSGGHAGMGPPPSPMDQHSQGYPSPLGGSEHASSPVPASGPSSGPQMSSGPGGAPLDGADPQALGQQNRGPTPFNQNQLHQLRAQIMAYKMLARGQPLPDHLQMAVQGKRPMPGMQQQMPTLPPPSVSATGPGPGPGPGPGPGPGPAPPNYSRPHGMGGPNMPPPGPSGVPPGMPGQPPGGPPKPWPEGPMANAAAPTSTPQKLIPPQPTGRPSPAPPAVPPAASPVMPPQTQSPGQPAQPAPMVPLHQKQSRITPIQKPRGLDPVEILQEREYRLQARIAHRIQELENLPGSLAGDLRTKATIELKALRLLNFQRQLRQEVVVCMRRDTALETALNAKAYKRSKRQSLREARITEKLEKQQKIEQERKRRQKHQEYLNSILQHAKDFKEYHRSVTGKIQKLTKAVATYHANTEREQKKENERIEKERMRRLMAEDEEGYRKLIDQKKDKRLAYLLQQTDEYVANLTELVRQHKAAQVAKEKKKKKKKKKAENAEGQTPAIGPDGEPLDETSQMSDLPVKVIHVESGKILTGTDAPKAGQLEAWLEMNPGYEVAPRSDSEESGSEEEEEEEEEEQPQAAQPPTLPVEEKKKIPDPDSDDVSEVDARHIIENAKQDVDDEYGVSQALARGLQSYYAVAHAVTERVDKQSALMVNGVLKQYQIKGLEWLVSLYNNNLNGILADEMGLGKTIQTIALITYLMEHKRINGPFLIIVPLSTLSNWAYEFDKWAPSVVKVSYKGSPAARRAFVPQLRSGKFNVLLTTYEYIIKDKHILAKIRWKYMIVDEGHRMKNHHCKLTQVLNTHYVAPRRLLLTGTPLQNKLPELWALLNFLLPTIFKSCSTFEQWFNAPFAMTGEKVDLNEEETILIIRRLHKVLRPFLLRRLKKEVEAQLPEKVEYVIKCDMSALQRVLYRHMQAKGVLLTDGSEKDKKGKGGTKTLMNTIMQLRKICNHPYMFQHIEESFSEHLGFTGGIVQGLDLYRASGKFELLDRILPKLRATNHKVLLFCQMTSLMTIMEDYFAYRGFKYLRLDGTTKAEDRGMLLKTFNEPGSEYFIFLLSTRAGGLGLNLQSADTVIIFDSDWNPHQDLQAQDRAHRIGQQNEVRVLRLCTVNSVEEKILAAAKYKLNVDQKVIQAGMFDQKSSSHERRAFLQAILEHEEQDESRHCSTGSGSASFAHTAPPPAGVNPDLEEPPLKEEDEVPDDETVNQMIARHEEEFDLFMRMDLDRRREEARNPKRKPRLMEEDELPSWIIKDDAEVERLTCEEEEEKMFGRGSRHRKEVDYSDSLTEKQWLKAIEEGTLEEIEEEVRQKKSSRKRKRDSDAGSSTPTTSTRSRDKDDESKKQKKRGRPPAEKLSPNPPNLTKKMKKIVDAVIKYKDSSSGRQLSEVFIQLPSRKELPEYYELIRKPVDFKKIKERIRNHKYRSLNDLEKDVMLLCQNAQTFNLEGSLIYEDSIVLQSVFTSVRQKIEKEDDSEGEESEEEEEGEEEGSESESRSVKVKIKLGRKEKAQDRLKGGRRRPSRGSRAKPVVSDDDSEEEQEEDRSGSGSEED

In the case of `Nc1nnc(-c2ccccc2O)cc1N1CC2CCC(C1)N2c1ccnc(C#CCN2CC(Oc3ccccc3)C2)c1` [Compound 226, 2-[6-amino-5-[8-[2-[3-(3-phenoxyazetidin-1-yl)prop-1-ynyl]-4-pyridyl]-3,8-diazabicyclo[3.2.1]octan-3-yl]pyridazin-3-yl]phenol], at BRG1, the DC50 was under 10 nM and the Dmax was in the range of 30 to 70%. Also, on BRM, the DC50 was 10 to 100 nM and the “BRM IF Degradation Sinf (%)” value is “E (E indicates −30%-−70%)”.

Turning to `CS(=O)(=O)C1CN(CC#Cc2cc(N3C4CCC3CN(c3cc(-c5ccccc5O)nnc3N)C4)ccn2)C1` [Compound 227, 2-[6-amino-5-[8-[2-[3-(3-methylsulfonylazetidin-1-yl)prop-1-ynyl]-4-pyridyl]-3,8-diazabicyclo[3.2.1]octan-3-yl]pyridazin-3-yl]phenol], the DC50 at BRG1 is over 100 nM. At BRM, the DC50 is over 100 nM and the “BRM IF Degradation Sinf (%)” value is “E (E indicates −30%-−70%)”.

For `Nc1nnc(-c2ccccc2O)cc1N1CC2CCC(C1)N2c1ccnc(C#CCN2CC(F)C2)c1` [Compound 228, 2-[6-amino-5-[8-[2-[3-(3-fluoroazetidin-1-yl)prop-1-ynyl]-4-pyridyl]-3,8-diazabicyclo[3.2.1]octan-3-yl]pyridazin-3-yl]phenol], at BRG1, the DC50 was under 10 nM and the Dmax is 0 to 30%. In addition, on BRM, the DC50 was under 10 nM and the “BRM IF Degradation Sinf (%)” value is recorded as “E (E indicates −30%-−70%)”.

Take `Nc1nnc(-c2ccccc2O)cc1N1CC2CCC(C1)N2c1ccnc(C#CCN2CC(N3CCOCC3)C2)c1` [Compound 229, 2-[6-amino-5-[8-[2-[3-(3-morpholinoazetidin-1-yl)prop-1-ynyl]-4-pyridyl]-3,8-diazabicyclo[3.2.1]octan-3-yl]pyridazin-3-yl]phenol]: on BRG1, the DC50 is 10 to 100 nM and the Dmax was in the range of 30 to 70%. Further, on BRM, the DC50 was in the range of 10 to 100 nM and the “BRM IF Degradation Sinf (%)” value was “F (F indicates −71%-−120%)”.

Consider `Nc1nnc(-c2ccccc2O)cc1N1CC2CCC(C1)N2c1ccnc(C#CCN2CC3(CCCCC3)C2)c1` [Compound 230, 2-[6-amino-5-[8-[2-[3-(2-azaspiro[3.5]nonan-2-yl)prop-1-ynyl]-4-pyridyl]-3,8-diazabicyclo[3.2.1]octan-3-yl]pyridazin-3-yl]phenol], for which, on BRG1, the DC50 was in the range of 10 to 100 nM and the Dmax fell in the range of 30 to 70%. Further, on BRM, the DC50 fell in the range of 10 to 100 nM and the “BRM IF Degradation Sinf (%)” value is on record as “E (E indicates −30%-−70%)”.

In the case of `Nc1nnc(-c2ccccc2O)cc1N1CC2CCC(C1)N2c1ccnc(C#CCN2CC(c3ccncn3)C2)c1` [Compound 231, 2-[6-amino-5-[8-[2-[3-(3-pyrimidin-4-ylazetidin-1-yl)prop-1-ynyl]-4-pyridyl]-3,8-diazabicyclo[3.2.1]octan-3-yl]pyridazin-3-yl]phenol], on BRG1, the DC50 is under 10 nM and the Dmax lay in the range of 30 to 70%. Besides, on BRM, the DC50 was under 10 nM and the “BRM IF Degradation Sinf (%)” value is given as “E (E indicates −30%-−70%)”.

With `Nc1nnc(-c2ccccc2O)cc1N1CC2CCC(C1)N2c1ccnc(C#CCN2CC(C(F)(F)F)C2)c1` [Compound 232, 2-[6-amino-5-[8-[2-[3-[3-(trifluoromethyl)azetidin-1-yl]prop-1-ynyl]-4-pyridyl]-3,8-diazabicyclo[3.2.1]octan-3-yl]pyridazin-3-yl]phenol], at BRG1, the DC50 is under 10 nM and the Dmax was in the range of 30 to 70%. On BRM, the DC50 fell in the range of 10 to 100 nM and the “BRM IF Degradation Sinf (%)” value is “E (E indicates −30%-−70%)”.

`Nc1nnc(-c2ccccc2O)cc1N1CC2CCC(C1)N2c1ccnc(C#CCN2CC3(CC3)C2)c1` [Compound 233, 2-[6-amino-5-[8-[2-[3-(5-azaspiro[2.3]hexan-5-yl)prop-1-ynyl]-4-pyridyl]-3,8-diazabicyclo[3.2.1]octan-3-yl]pyridazin-3-yl]phenol]: at BRG1, the DC50 is under 10 nM and the Dmax lay within 30 to 70%. Moreover, at BRM, the DC50 was under 10 nM and the “BRM IF Degradation Sinf (%)” value is recorded as “E (E indicates −30%-−70%)”.

Consider `Nc1nnc(-c2ccccc2O)cc1N1CC2CCC(C1)N2c1ccnc(C#CCN2CC(c3ccccc3)C2)c1` [Compound 234, 2-[6-amino-5-[8-[2-[3-(3-phenylazetidin-1-yl)prop-1-ynyl]-4-pyridyl]-3,8-diazabicyclo[3.2.1]octan-3-yl]pyridazin-3-yl]phenol], for which, on BRG1, the DC50 lay within 10 to 100 nM and the Dmax is 71 to 120%. On BRM, the DC50 lay in the range of 10 to 100 nM and the “BRM IF Degradation Sinf (%)” value is recorded as “E (E indicates −30%-−70%)”.

Take `Nc1nnc(-c2ccccc2O)cc1N1CC2CCC(C1)N2c1ccnc(C#CCN2CCC23CCC3)c1` [Compound 235, 2-[6-amino-5-[8-[2-[3-(1-azaspiro[3.3]heptan-1-yl)prop-1-ynyl]-4-pyridyl]-3,8-diazabicyclo[3.2.1]octan-3-yl]pyridazin-3-yl]phenol]: at BRG1, the DC50 is under 10 nM and the Dmax lay in the range of 30 to 70%. In addition, at BRM, the DC50 lay within 10 to 100 nM and the “BRM IF Degradation Sinf (%)” value is recorded as “F (F indicates −71%-−120%)”.

`CS(=O)(=O)N1CCC2(CN(CC#Cc3cc(N4C5CCC4CN(c4cc(-c6ccccc6O)nnc4N)C5)ccn3)C2)C1` [Compound 236, 2-[6-amino-5-[8-[2-[3-(7-methylsulfonyl-2,7-diazaspiro[3.4]octan-2-yl)prop-1-ynyl]-4-pyridyl]-3,8-diazabicyclo[3.2.1]octan-3-yl]pyridazin-3-yl]phenol]: at BRG1, the DC50 lay within 10 to 100 nM and the Dmax lay within 0 to 30%. Further, on BRM, the DC50 was over 100 nM and the “BRM IF Degradation Sinf (%)” value is reported as “F (F indicates −71%-−120%)”.

Regarding `N#Cc1ccc(C2CN(CC#Cc3cc(N4C5CCC4CN(c4cc(-c6ccccc6O)nnc4N)C5)ccn3)C2)cc1` [Compound 237, 4-[1-[3-[4-[3-[3-amino-6-(2-hydroxyphenyl)pyridazin-4-yl]-3,8-diazabicyclo[3.2.1]octan-8-yl]-2-pyridyl]prop-2-ynyl]azetidin-3-yl]benzonitrile], at BRG1, the DC50 was in the range of 10 to 100 nM and the Dmax fell in the range of 30 to 70%. In addition, on BRM, the DC50 is 10 to 100 nM and the “BRM IF Degradation Sinf (%)” value is listed as “E (E indicates −30%-−70%)”.

`Nc1nnc(-c2ccccc2O)cc1N1CC2CCC(C1)N2c1ccnc(C#CCN2CC(F)(C3CC3)C2)c1` [Compound 238, 2-[6-amino-5-[8-[2-[3-(3-cyclopropyl-3-fluoro-azetidin-1-yl)prop-1-ynyl]-4-pyridyl]-3,8-diazabicyclo[3.2.1]octan-3-yl]pyridazin-3-yl]phenol]: at BRG1, the DC50 was under 10 nM and the Dmax lay in the range of 30 to 70%. On BRM, the DC50 is 10 to 100 nM and the “BRM IF Degradation Sinf (%)” value is “E (E indicates −30%-−70%)”.

Consider `CC1CCN(CC#Cc2cc(N3C4CCC3CN(c3cc(-c5ccccc5O)nnc3N)C4)ccn2)CCC1(C)O` (centres unmarked) [Compound 239, 1-[3-[4-[3-[3-amino-6-(2-hydroxyphenyl)pyridazin-4-yl]-3,8-diazabicyclo[3.2.1]octan-8-yl]-2-pyridyl]prop-2-ynyl]-4,5-dimethyl-azepan-4-ol], for which, on BRG1, the DC50 was under 10 nM and the Dmax lay within 30 to 70%. Besides, at BRM, the DC50 is under 10 nM and the “BRM IF Degradation Sinf (%)” value is listed as “E (E indicates −30%-−70%)”.

As for `CC1(O)CCCCN(CC#Cc2cc(N3C4CCC3CN(c3cc(-c5ccccc5O)nnc3N)C4)ccn2)C1` (centres unmarked) [Compound 240, 1-[3-[4-[3-[3-amino-6-(2-hydroxyphenyl)pyridazin-4-yl]-3,8-diazabicyclo[3.2.1]octan-8-yl]-2-pyridyl]prop-2-ynyl]-3-methyl-azepan-3-ol], on BRG1, the DC50 was 10 to 100 nM and the Dmax lay within 30 to 70%. Also, at BRM, the DC50 lay within 10 to 100 nM and the “BRM IF Degradation Sinf (%)” value is listed as “F (F indicates −71%-−120%)”.

Regarding `Nc1nnc(-c2ccccc2O)cc1N1CC2CCC(C1)N2c1ccnc(C#CCN2CCCCC(O)(CF)C2)c1` (centres unmarked) [Compound 241, 1-[3-[4-[3-[3-amino-6-(2-hydroxyphenyl)pyridazin-4-yl]-3,8-diazabicyclo[3.2.1]octan-8-yl]-2-pyridyl]prop-2-ynyl]-3-(fluoromethyl)azepan-3-ol], at BRG1, the DC50 is under 10 nM and the Dmax is 0 to 30%. On BRM, the DC50 is 10 to 100 nM and the “BRM IF Degradation Sinf (%)” value is given as “E (E indicates −30%-−70%)”.

Regarding `Nc1nnc(-c2ccccc2O)cc1N1CC2CCC(C1)N2c1ccnc(C#CCN2CCCCC(O)C2)c1` (centres unmarked) [Compound 242, 1-[3-[4-[3-[3-amino-6-(2-hydroxyphenyl)pyridazin-4-yl]-3,8-diazabicyclo[3.2.1]octan-8-yl]-2-pyridyl]prop-2-ynyl]azepan-3-ol], on BRG1, the DC50 was under 10 nM and the Dmax lay within 30 to 70%. For the same compound, at BRM, the DC50 is under 10 nM and the “BRM IF Degradation Sinf (%)” value is on record as “F (F indicates −71%-−120%)”.

Take `CC1(F)CCCCN(CC#Cc2cc(N3C4CCC3CN(c3cc(-c5ccccc5O)nnc3N)C4)ccn2)C1` (centres unmarked) [Compound 243, 2-[6-amino-5-[8-[2-[3-(3-fluoro-3-methyl-azepan-1-yl)prop-1-ynyl]-4-pyridyl]-3,8-diazabicyclo[3.2.1]octan-3-yl]pyridazin-3-yl]phenol]: on BRG1, the DC50 was under 10 nM and the Dmax lay in the range of 30 to 70%. Moreover, at BRM, the DC50 lay within 10 to 100 nM and the “BRM IF Degradation Sinf (%)” value is “F (F indicates −71%-−120%)”.
